Test results taken from patent publication US12427210B2, “Compounds comprising a fibroblast activation protein ligand and use thereof” (priority 2019, dated 2025).
Numbered stars: 1 amine (or outer) side, 2 acyl side, 3 side chain; on linkers, the order of the positions; unused ones are H or OH. Bridge positions count the residues as written; N and C are the ends. Peptide text beside a SMILES is read from it. * marks the point of attachment. X5 = O=C1CN2CCN3CCN(CC(=O)N4CCN(Cc5cc(C[*:1])cc(C[*:2])c5)CC4)CCN(CC2)CC(=O)[O][Eu]([O]1)[O]C(=O)C3; Hexanoyl = CCCCCC(=O)*

What was measured:
in vitro [1] = details: mouse, plasma
FAP [2] = target: T1, FAP (Homo sapiens, UniProt Q12884); test: biochemical
in vitro [3] = details: rat, plasma
in vitro [4] = details: human, plasma
[5] = target: FAP-expressing human WI-38 fibroblasts (Homo sapiens, UniProt Q12884); test: cell-based
FAP [6] = target: T1, FAP; test: biochemical; remark: listed apart in the source
5-HT2B (h) = 5-HT2B (h) (Homo sapiens, UniProt P41595); details: read-out: Ki Ref; reference compound
Renin = target: T2, Renin (Homo sapiens, UniProt P00797); test: biochemical; details: read-out: Percentage inhibition (%), Reference
T2 sequence (P00797 67-406): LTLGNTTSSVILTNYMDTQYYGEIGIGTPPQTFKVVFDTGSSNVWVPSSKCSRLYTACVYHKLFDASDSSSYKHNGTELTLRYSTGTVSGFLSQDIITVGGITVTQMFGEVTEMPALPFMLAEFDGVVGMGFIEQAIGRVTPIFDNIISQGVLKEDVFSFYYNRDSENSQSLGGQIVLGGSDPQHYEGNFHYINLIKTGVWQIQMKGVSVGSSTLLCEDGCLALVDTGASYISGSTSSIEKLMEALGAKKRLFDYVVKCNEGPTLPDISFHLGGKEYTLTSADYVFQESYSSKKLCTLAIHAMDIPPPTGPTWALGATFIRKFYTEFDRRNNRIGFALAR

Activated Protein C = Activated Protein C (Homo sapiens, UniProt P04070); test: biochemical; details: read-out: Percentage inhibition (%), Reference
HEK-FAP tumors = test: Efficacy study HEK-FAP
Sarc4809 PDX tumors = test: Efficacy study sarcoma Sarc4809 PDX model
Cathepsin F = target: T3, Cathepsin F (Homo sapiens, UniProt Q9UBX1); details: 1 μM
T3 sequence (Q9UBX1 271-484): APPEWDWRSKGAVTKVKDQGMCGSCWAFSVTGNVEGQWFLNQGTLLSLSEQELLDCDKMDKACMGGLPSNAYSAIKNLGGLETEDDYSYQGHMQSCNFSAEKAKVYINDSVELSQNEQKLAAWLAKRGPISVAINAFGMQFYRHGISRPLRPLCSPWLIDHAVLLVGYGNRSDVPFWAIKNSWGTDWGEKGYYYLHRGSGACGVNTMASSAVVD

Caspase-3 = target: T4, Caspase-3 (Homo sapiens, UniProt P42574); details: 100 nM
T4 sequence (P42574 29-175 limits assumed): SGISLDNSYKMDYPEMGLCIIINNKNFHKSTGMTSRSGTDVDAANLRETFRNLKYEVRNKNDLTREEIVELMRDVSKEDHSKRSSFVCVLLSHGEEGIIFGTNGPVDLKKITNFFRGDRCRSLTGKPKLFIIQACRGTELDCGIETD
T4 sequence (P42574 176-277 limits assumed): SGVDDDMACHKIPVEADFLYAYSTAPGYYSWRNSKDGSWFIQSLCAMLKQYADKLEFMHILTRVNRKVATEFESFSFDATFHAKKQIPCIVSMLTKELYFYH

Caspase-7 = target: T5, Caspase-7 (Homo sapiens, UniProt P55210); details: 1 μM
T5 sequence (P55210 24-198 limits assumed): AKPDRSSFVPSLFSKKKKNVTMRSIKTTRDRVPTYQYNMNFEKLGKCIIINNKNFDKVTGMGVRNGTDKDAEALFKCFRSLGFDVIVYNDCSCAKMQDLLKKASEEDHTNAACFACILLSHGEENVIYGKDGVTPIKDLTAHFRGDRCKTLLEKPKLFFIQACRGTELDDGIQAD
T5 sequence (P55210 207-303 limits assumed): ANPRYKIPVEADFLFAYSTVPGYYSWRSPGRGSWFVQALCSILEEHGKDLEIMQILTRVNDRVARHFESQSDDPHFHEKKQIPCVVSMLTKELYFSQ

Cathepsin B = Cathepsin B (Homo sapiens, UniProt P07858); details: 100 nM
Cathepsin V = Cathepsin V (Homo sapiens, UniProt O60911); details: 100 nM
Cathepsin S = Cathepsin S (Homo sapiens, UniProt P25774); details: 100 nM
Cathepsin L = Cathepsin L (Homo sapiens, UniProt P07711); details: 1 μM
NMDA = details: read-out: Ki Ref; reference compound
alpha 1A (h) = target: T6, alpha 1A (h) (Homo sapiens, UniProt P35348); details: read-out: Ki Ref; reference compound
T6 sequence (P35348 1-466): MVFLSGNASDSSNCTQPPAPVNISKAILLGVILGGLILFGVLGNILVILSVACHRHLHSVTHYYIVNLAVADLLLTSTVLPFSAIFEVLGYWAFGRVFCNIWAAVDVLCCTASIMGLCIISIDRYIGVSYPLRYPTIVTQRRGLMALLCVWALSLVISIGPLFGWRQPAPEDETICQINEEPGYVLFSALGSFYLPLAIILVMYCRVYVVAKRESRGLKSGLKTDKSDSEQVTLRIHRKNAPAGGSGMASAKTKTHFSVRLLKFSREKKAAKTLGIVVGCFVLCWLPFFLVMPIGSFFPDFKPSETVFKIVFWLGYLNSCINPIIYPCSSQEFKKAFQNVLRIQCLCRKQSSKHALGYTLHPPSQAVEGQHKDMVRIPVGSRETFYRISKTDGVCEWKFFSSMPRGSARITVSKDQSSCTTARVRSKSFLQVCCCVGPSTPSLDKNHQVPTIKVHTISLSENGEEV

KV channel = details: read-out: Ki Ref; reference compound
[7] = throughout the study, all groups

With `CCCCCC(=O)N[C@H]1CSCc2cc(CSCCNC(=O)CN3CCN4CCN5CCN(CC3)CC(=O)[O][Lu]([O]C(=O)C4)[O]C(=O)C5)cc(c2)CSC[C@@H](C(=O)O)NC(=O)[C@H](Cc2ccccc2)NC(=O)[C@H](CCC(N)=O)NC(=O)[C@H]([C@@H](C)O)NC(=O)[C@@H]2CCCN2C(=O)[C@@H]2CCCN2C1=O` [Compound 3BP-3624, Hex-[Cys(tMeBn(LuDOTA-AET))-Pro-Pro-Thr-Gln-Phe-Cys]-OH] the remaining at 24 h, 9.8 µM (in vitro [1]) was 100%, the IC50 (FAP [2]) was < 10 nM and the remaining at 24 h, 9.8 µM (in vitro [3]) was 100%. For the same molecule, the remaining at 24 h, 9.8 µM (in vitro [4]) was 100%, the IC50 [5] was < 10 nM and the Kd (FAP [6]) was < 10 nM.

With `CCCCCC(=O)N[C@H]1CSCc2cc(cc(CN3CCN(C(=O)CN4CCN5CCN6CCN(CC4)CC(=O)[O][Eu]([O]C(=O)C6)[O]C(=O)C5)CC3)c2)CSC[C@@H](C(=O)N[C@@H](CC(=O)O)C(N)=O)NC(=O)[C@H](Cc2ccccc2)NC(=O)[C@H](CCC(N)=O)NC(=O)[C@H]([C@@H](C)O)NC(=O)[C@@H]2CCCN2C(=O)[C@@H]2CCCN2C1=O` [Compound 3BP-3661, Hex-[Cys(tMeBn(EuDOTA-PP))-Pro-Pro-Thr-Gln-Phe-Cys]-Asp-NH2] (Hexanoyl-CPPTQFCD-NH2; linker 1-7 via X5) the IC50 (FAP [2]) was < 10 nM and the IC50 [5] was < 10 nM.

For `COc1cc(CC(C)N)c(OC)cc1I` (racemic) [(±)DOI], the Ki (5-HT2B (h)) was 4.2 nM.

For `COCCCOc1cc(C[C@@H](C[C@H](N)[C@@H](O)C[C@H](C(=O)NCC(C)(C)C(N)=O)C(C)C)C(C)C)ccc1OC` [Aliskiren, reference compound], the inhibition at 0.03 µM (Renin) was 99%.

`[H]/N=C(/N)c1ccc(NCc2nc3cc(C(=O)N(CCC(=O)O)c4ccccn4)ccc3n2C)cc1` [Dabigatran, reference compound] gave an inhibition at 20 µM (Activated Protein C) of 74%.

For `CCCCCC(=O)N[C@H]1CSCc2cc(CSCCNC(=O)CN3CCN(CC(=O)O)CCN(CC(=O)O)CCN(CC(=O)O)CC3)cc(c2)CSC[C@@H](C(=O)O)NC(=O)[C@H](Cc2ccccc2)NC(=O)[C@H](CCC(N)=O)NC(=O)[C@H]([C@@H](C)O)NC(=O)[C@@H]2CCCN2C(=O)[C@@H]2CCCN2C1=O` [^177Lu-3BP-3554, metal not drawn], the body weight loss (HEK-FAP tumors; [7]) was “No treatment-related body weight loss” and the “body weight loss (BWL)” value (Sarc4809 PDX tumors; [7]) was “No treatment-related body weight loss”.

For `CCCCCC(=O)N[C@H]1CSCc2cc(CSCCNC(=O)CN3CCN4CCN5CCN(CC3)CC(=O)[O][Ga]([O]C(=O)C4)[O]C(=O)C5)cc(c2)CSC[C@@H](C(=O)O)NC(=O)[C@H](Cc2ccccc2)NC(=O)[C@H](CCC(N)=O)NC(=O)[C@H]([C@@H](C)O)NC(=O)[C@@H]2CCCN2C(=O)[C@@H]2CCCN2C1=O` [Compound 3BP-3949, Hex-[Cys(tMeBn(GaDOTA-AET))-Pro-Pro-Thr-Gln-Phe-Cys]-OH], the IC50 (FAP [2]) was < 10 nM, the IC50 [5] was < 10 nM and the Kd (FAP [6]) was < 10 nM.

For Cystatin C, the “Percentage inhibition (%), Reference” value (Cathepsin F) was 74%.

For `COC[C@@H]1CCCN1S(=O)(=O)c1ccc2c(c1)C(=O)C(=O)N2` [Caspase 3/7 Inhibitor I], the “Percentage inhibition (%), Reference” value (Caspase-3) was 89% and the “Percentage inhibition (%), Reference” value (Caspase-7) was 92%.

With `CCCCCC(=O)N[C@H]1CSCc2cc(CSCCNC(=O)CN3CCN4CCN5CCN(CC3)CC(=O)[O][Eu]([O]C(=O)C4)[O]C(=O)C5)cc(c2)CSC[C@@H](C(=O)O)NC(=O)[C@H](Cc2ccccc2)NC(=O)[C@H](CCC(N)=O)NC(=O)[C@H]([C@@H](C)O)NC(=O)[C@@H]2CCCN2C(=O)[C@@H]2CCCN2C1=O` [Compound 3BP-3662, Hex-[Cys(tMeBn(EuDOTA-AET))-Pro-Pro-Thr-Gln-Phe-Cys]-OH] the IC50 (FAP [2]) was < 10 nM and the IC50 [5] was < 10 nM.

For `CC(C)C[C@H](NC(=O)[C@H]1O[C@@H]1C(=O)O)C(=O)NCCCCN=C(N)N` [Compound E-64, E-64], the “Percentage inhibition (%), Reference” value (Cathepsin B) was 97%, the “Percentage inhibition (%), Reference” value (Cathepsin V) was 83% and the “Percentage inhibition (%), Reference” value (Cathepsin S) was 91%. The “Percentage inhibition (%), Reference” value (Cathepsin L) was 97%.

Work on `O=C(O)[C@@H]1C[C@H](CP(=O)(O)O)CCN1` [CGS 19755, reference compound] yielded a Ki (NMDA) of 140 nM.

In the case of `CCCCCC(=O)N[C@H]1CSCc2cc(CSCCNC(=O)CN3CCN4CCN(CC(=O)O)CCN(CC3)CC(=O)[O][Cu][O]C(=O)C4)cc(c2)CSC[C@@H](C(=O)O)NC(=O)[C@H](Cc2ccccc2)NC(=O)[C@H](CCC(N)=O)NC(=O)[C@H]([C@@H](C)O)NC(=O)[C@@H]2CCCN2C(=O)[C@@H]2CCCN2C1=O` [Compound 3BP-4293, Hex-[Cys-(tMeBn(CuDOTA-AET))-Pro-Pro-Thr-Gln-Phe-Cys]-OH], the IC50 (FAP [2]) is reported as < 10 nM and the IC50 [5] is reported as < 10 nM.

`COc1cccc(OC)c1OCCNCC1COc2ccccc2O1` (stereo not shown) [WB 4101] showed a Ki (alpha 1A (h)) of 0.24 nM.

For `CCCCCC(=O)N[C@H]1CSCc2cc(CSCCNC(=O)CN3CCN4CCN(CC(=O)O)CCN(CC3)CC(=O)[O][Zn][O]C(=O)C4)cc(c2)CSC[C@@H](C(=O)O)NC(=O)[C@H](Cc2ccccc2)NC(=O)[C@H](CCC(N)=O)NC(=O)[C@H]([C@@H](C)O)NC(=O)[C@@H]2CCCN2C(=O)[C@@H]2CCCN2C1=O` [Compound 3BP-4343, Hex-[Cys-(tMeBn(ZnDOTA-AET))-Pro-Pro-Thr-Gln-Phe-Cys]-OH], the IC50 (FAP [2]) was < 10 nM and the IC50 [5] was < 10 nM.

Work on alpha-dendrotoxin [reference compound] yielded a Ki (KV channel) of 0.097 nM.

In the case of `CCCCCC(=O)N[C@H]1CSCc2cc(CSCCNC(=O)CN3CCN4CCN5CCN(CC3)CC(=O)[O][Lu]([O]C(=O)C4)[O]C(=O)C5)cc(c2)CSC[C@@H](C(=O)O)NC(=O)[C@H](Cc2ccccc2)NC(=O)[C@H](CCC(N)=O)NC(=O)[C@H]([C@@H](C)O)NC(=O)[C@@H]2CCCN2C(=O)[C@@H]2CCCN2C1=O` [^natLu-3BP-3554], the “mean tumor volume (MTV)” value (HEK-FAP tumors; cold compound, single i.v. injection Day 0, day 14) is reported as 1392±420 mm^3 and the MTV (Sarc4809 PDX tumors; cold compound (control group), day 31) is reported as 1225±775 mm^3.
